Consider 13 molecules from patent publication US10647694B2, “Diphenylaminopyrimidine and triazine compound, and pharmaceutical composition and use thereof” (ARROMAX PHARMATECH CO., LTD., priority 2016, dated 2020).

Chain of ALK enzyme (Q9UM73 19-1620 limits assumed): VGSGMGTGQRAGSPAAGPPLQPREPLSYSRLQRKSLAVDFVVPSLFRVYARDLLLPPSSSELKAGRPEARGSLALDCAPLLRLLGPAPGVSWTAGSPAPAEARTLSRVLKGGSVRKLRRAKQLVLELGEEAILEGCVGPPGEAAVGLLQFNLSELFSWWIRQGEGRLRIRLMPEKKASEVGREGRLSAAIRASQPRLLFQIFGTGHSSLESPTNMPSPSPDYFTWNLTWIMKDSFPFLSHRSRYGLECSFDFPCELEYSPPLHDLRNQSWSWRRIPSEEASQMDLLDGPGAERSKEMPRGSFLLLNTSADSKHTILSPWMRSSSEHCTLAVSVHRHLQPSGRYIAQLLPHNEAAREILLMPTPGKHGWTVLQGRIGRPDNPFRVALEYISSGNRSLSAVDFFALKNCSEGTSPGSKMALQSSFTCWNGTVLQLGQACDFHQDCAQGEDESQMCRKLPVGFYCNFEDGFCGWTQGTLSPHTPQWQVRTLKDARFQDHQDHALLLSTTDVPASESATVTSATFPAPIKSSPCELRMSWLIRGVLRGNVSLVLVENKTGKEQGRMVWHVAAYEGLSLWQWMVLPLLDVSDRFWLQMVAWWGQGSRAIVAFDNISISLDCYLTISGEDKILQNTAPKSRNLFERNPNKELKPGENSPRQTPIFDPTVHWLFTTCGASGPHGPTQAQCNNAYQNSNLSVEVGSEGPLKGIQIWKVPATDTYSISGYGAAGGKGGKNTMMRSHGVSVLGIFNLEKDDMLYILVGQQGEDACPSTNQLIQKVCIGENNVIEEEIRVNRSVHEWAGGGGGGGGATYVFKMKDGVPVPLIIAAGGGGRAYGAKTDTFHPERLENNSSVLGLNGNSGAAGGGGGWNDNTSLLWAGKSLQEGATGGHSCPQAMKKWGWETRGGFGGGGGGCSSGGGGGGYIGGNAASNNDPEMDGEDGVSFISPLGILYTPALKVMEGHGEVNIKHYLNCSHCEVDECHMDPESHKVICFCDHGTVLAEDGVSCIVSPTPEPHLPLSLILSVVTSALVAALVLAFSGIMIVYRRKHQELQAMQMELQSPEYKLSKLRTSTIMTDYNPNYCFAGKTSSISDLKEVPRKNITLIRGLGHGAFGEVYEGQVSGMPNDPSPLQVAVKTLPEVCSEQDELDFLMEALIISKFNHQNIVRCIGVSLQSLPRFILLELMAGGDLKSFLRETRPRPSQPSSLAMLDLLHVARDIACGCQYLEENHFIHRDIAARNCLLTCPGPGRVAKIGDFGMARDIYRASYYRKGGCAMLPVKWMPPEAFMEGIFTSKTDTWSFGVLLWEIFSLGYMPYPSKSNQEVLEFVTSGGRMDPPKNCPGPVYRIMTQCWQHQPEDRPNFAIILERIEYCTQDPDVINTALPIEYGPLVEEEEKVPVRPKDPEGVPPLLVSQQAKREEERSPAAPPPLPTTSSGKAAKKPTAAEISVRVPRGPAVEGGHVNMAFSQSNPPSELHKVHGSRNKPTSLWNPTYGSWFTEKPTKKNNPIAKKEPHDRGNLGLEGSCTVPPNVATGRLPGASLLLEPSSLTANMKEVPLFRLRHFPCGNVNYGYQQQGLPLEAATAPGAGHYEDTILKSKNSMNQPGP

The experiment has as its target ALK enzyme (Homo sapiens, UniProt Q9UM73). Put plainly: In-vitro ALK kinase inhibitory activity (HTRF kinEASE TK kit). The format is biochemical. As to conditions: inhibitory activity for ALK enzyme, read-out: IC50 range. As to the method:
Anaplastic Lymphoma Kinase (ALK) Inhibitory Activity The in-vitro kinase assay was performed using the HTRF kinEASE TK kit available from Cisbio. The operation steps are indicated in the instructions of the kit. This method was used to detect the inhibitory effect of the compound to be tested on the activity of ALK enzymes in vitro, including wild-type ALK (Cat.PV3867, Invitrogen), ALK L1196M (Cat. PV6168, Life technologies), and ALK F1174L (Cat. PV6160, Life technologies). The specific operation steps were as follows. […] In addition to the control wells, 4 μL of the diluted compound solution to be tested was added to the reaction wells, and 4 μL of the 2.5% DMSO solution corresponding to the ALK enzyme previously formulated was added to the control wells. (2) 2 μL of a TK-biotin substrate solution previously formulated in a substrate concentration corresponding to the ALK enzyme was added to all reaction wells. (3) 2 μL of a previously prepared enzyme solution of corresponding concentration was added to all the reaction wells except the negative wells, and 2 μL of the 1× kinase buffer corresponding to the enzyme was added to the negative wells to make up the volume. The plate was sealed with a membrane, and incubated for 10 min at room temperature after mixing uniformly, such that the compounds were bond to the enzyme fully. (4) 2 μL of an ATP solution in a concentration corresponding to the ALK enzyme was added to all the reaction wells to initiate the kinase reaction, where the enzyme reaction time by ALK was 60 minutes. (5) An ALK test solution was prepared 5 minutes before the end of the kinase reaction. Streptavidin-XL665 and TK antibody europium cryptate (1:100) solutions for assay having a concentration corresponding to the enzyme were prepared using the detection buffer in the kit. (6) After the completion of the kinase reaction, 5 μl of diluted Streptavidin-XL665 was added to all the reaction wells respectively, and mixed uniformly, and then the diluted TK antibody europium cryptate solution for assay was added immediately. (7) The plate was sealed, mixed uniformly and allowed to react at room temperature for 1 h. The fluorescence signal (excitation at 320 nm, and emission at 665 nm and 615 nm) was detected using the ENVISION instrument (Perkinelmer). The inhibition rate for each well was calculated from the values of the fully active wells and the background signal wells. The values of replicated wells were averaged, and the half-maximal inhibitory activity (IC50) of each compound to be tested was fitted with a professional drawing analysis software PRISM 5.0.
For orientation: In TR-FRET formats the signal depends on donor and acceptor labels being close together.
In the case of `COc1cc(N2CCC(N3CCOCC3)CC2)ccc1Nc1ncc(Cl)c(Nc2ccccc2S(=O)(=O)C(C)C)n1` [Compound I-35, 5-chloro-N4-(2-(isopropylsulfonyl)phenyl)-N2-(2-D3-methoxy-4-(4-morpholinopiperidin-1-yl)phenyl)pyrimidin-2,4-diamine], the IC50 was 1 to 10 nM.
`COc1cc(N2CCC(N(C)C)CC2)ccc1Nc1ncc(Cl)c(Nc2ccccc2P(C)(C)=O)n1` [Compound I-37, (2-((5-chloro-2-((4-(4-(dimethylamino)piperidin-1-yl)-2-D3-methoxyphenyl)amino)pyrimidin-4-yl)amino)phenyl)dimethylphosphorus oxide]: the IC50 lay within 1 to 10 nM.
As for `COc1cc(C2CCNCC2)c(Cl)cc1Nc1ncc(Cl)c(Nc2ccccc2S(=O)(=O)C(C)C)n1` [Compound I-18, 5-chloro-N2-(5-chloro-2-D3-methoxy-4-(piperidin-4-yl)phenyl)-N4-(2-(isopropylsulfonyl)phenyl)pyrimidin-2,4-diamine], the figure is 1 to 10 nM; as for `COc1cc(C2CCNCC2)c(C)cc1Nc1nccc(Nc2ccccc2S(=O)(=O)C(C)C)n1` [Compound I-1, N4-(2-(isopropylsulfonyl)phenyl)-N2-(2-D3-methoxy-5-methyl-4-(piperidin-4-yl)phenyl)pyrimidin-2,4-diamine], 1 to 10 nM; as for `COc1cc(C2CCNCC2)c(C)cc1Nc1nc(Nc2ccccc2S(=O)(=O)C(C)C)c2cc[nH]c2n1` [Compound I-30, N4-(2-(isopropylsulfonyl)phenyl)-N2-(2-D3-methoxy-5-methyl-4-(piperidin-4-yl)phenyl)-7H-pyrrolo[2,3-d]pyrimidin-2,4-diamine], 10 to 100 nM.
As for `COc1cc(C2CCNCC2)c(C)cc1Nc1ncnc(Nc2ccccc2S(=O)(=O)C(C)C)n1` [Compound I-40, N2-(2-(isopropylsulfonyl)phenyl)-N4-(2-D3-methoxy-5-methyl-4-(piperidin-4-yl)phenyl)-1,3,5-triazin-2,4-diamine], the figure is 1 to 10 nM; as for `COc1cc(C2CCNCC2)c(C(F)(F)F)cc1Nc1ncc(Cl)c(Nc2ccccc2S(=O)(=O)C(C)C)n1` [Compound I-22, 5-chloro-N4-(2-(isopropylsulfonyl)phenyl)-N2-(2-D3-methoxy-4-(piperidin-4-yl)-5-(trifluoromethyl)phenyl)pyrimidin-2,4-diamine], 1 to 10 nM; as for `COc1cc(C2CCNCC2)c(C)cc1Nc1ncc(F)c(Nc2ccccc2S(=O)(=O)C(C)C)n1` [Compound I-2, 5-fluoro-N4-(2-(isopropylsulfonyl)phenyl)-N2-(2-D3-methoxy-5-methyl-4-(piperidin-4-yl)phenyl)pyrimidin-2,4-diamine], 1 to 10 nM.
Then `COc1cc(C2CCNCC2)c(C)cc1Nc1ncc(Cl)c(Nc2ccccc2S(=O)(=O)C(C)C)n1` [Compound 45, reference compound], with 10 to 100 nM; and `COc1cc(C2CCNCC2)c(C)cc1Nc1nc(Nc2ccccc2S(=O)(=O)C(C)C)c2ccccc2n1` [Compound I-29, N4-(2-(isopropylsulfonyl)phenyl)-N2-(2-D3-methoxy-5-methyl-4-(piperidin-4-yl)phenyl)quinazolin-2,4-diamine], with 10 to 100 nM.
As for `COc1cc(N2CCC(N3CCN(C)CC3)CC2)ccc1Nc1nc(Nc2ccccc2S(=O)(=O)C(C)C)c2cc[nH]c2n1` [Compound I-24], the IC50 was in the range of 10 to 100 nM.
Then `COc1cc(C2CCNCC2)c(F)cc1Nc1ncc(Cl)c(Nc2ccccc2S(=O)(=O)C(C)C)n1` [Compound I-21, 5-chloro-N2-(5-fluoro-2-D3-methoxy-4-(piperidin-4-yl)phenyl)-N4-(2-(isopropylsulfonyl)phenyl)pyrimidin-2,4-diamine], with 1 to 10 nM.
Then `COc1cc(N2CCC(N3CCSCC3)CC2)ccc1Nc1ncc(Cl)c(Nc2ccccc2S(=O)(=O)C(C)C)n1` [Compound I-33, 5-chloro-N4-(2-(isopropylsulfonyl)phenyl)-N2-(2-D3-methoxy-4-(4-thiomorpholinopiperidin-1-yl)phenyl)pyrimidin-2,4-diamine], with 1 to 10 nM.

Usually IC50 stands for the concentration needed to halve the response being measured.
